Consider two molecules from ChEMBL document CHEMBL1201862, “PubChem BioAssay data set” (2004).

For assay [1], the target named is T1, Tyrosine-protein phosphatase non-receptor type 7 (Homo sapiens, UniProt P35236).
T1 sequence (P35236 whole entry): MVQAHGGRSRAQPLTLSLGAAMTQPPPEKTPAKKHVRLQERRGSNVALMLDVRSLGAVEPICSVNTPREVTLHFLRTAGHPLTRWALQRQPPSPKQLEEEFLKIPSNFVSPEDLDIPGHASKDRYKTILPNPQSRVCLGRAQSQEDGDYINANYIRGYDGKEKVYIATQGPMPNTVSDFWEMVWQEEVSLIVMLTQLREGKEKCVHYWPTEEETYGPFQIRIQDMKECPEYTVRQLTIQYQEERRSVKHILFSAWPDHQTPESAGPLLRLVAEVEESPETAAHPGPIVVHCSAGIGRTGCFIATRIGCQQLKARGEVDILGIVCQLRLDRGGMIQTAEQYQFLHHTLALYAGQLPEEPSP
Nature of the assay: HePTP tyrosine phosphatase activity blockers – biochemical, absorbance, leukemia target, primary screen (AID 521). It is filed as functional.

The target of a further assay is Prothrombin (Homo sapiens, UniProt P00734). In words: Thrombin 1536 HTS Dose Response Confirmation. [Related pubchem assays: 1046 (Thrombin 1536 HTS; hits were confirmed in this assay)]. It is filed as functional.

SMILES strings stand for the structures. The source made the active and inactive calls. Rule as the data show it: actives have a measured IC50 and inactives only a lower limit. Where only a bound is given, the exact number is not on record here.

Regarding `NS(=O)(=O)c1cc2c(cc1C(F)(F)F)NCNS2(=O)=O` [HYDROFLUMETHIAZIDE], the IC50 in assay [1] is given as > 100 µM (not active).
Regarding `Cn1cc(C(=O)NCc2cccs2)c(=O)c2cc(S(=O)(=O)N3CCCC3)ccc21`, the IC50 at Prothrombin is 0.691 µM (active).
